Experiment: xn = mol fraction of the nth substance listed

CCCCC(=O)O + c1ccccc1
298.15 K, 101 kPa
Details	viscosity [mPa·s]
x1 = 0.04	0.62
x1 = 0.078	0.639
x1 = 0.12	0.662
x1 = 0.16	0.687
x1 = 0.34	0.825
x1 = 0.43	0.92
x1 = 0.53	1.062
x1 = 0.75	1.436

OC[C@H]1O[C@@](CO)(O[C@H]2O[C@H](CO)[C@@H](O)[C@H](O)[C@H]2O)[C@@H](O)[C@@H]1O + CS(C)=O
viscosity [mPa·s], 101 kPa
Details	298.15 K	308.15 K	318.15 K
x1 = 0.006451	2.4	1.962	1.63
x1 = 0.01289	2.883	2.319	1.908
x1 = 0.01959	3.523	2.793	2.266
x1 = 0.0336	5.532	4.214	3.309
x1 = 0.04801	9.087	6.615	4.999
x1 = 0.05582	12.08	8.541	6.292
x1 = 0.06395	16.4	11.28	8.055
x1 = 0.07246	22.45	14.86	10.39
x1 = 0.08036	30.82	19.69	13.36
x1 = 0.09752	61.59	36.46	23.02
x1 = 0.1069	90.84	51.59	31.4
x1 = 0.117	139.8	75.48	43.98
x1 = 0.1263	211.4	109.3	61.19

CC(=O)[O-].C[N+]1(CC2CO2)CCCC1=O (centres undefined) + CO
viscosity [mPa·s], 101 kPa
Details	293.15 K	298.15 K	303.15 K	308.15 K	313.15 K
x1 = 0.036	0.71	0.66	0.62	0.57	0.52
x1 = 0.0744	0.92	0.85	0.78	0.72	0.73
x1 = 0.1088	1.12	1.03	0.94	0.87	0.8
x1 = 0.2024	1.69	1.52	1.38	1.26	1.15
x1 = 0.3033	2.35	2.09	1.87	1.69	1.53
x1 = 0.4042	3.02	2.66	2.36	2.1	1.89
x1 = 0.504	3.68	3.22	2.83	2.51	2.24
x1 = 0.6015	4.28	3.71	3.25	2.86	2.54
x1 = 0.7036	4.91	4.23	3.68	3.23	2.85
x1 = 0.8051	5.51	4.72	4.09	3.57	3.14
x1 = 0.9086	6.14	5.21	4.49	3.9	3.42

NCCNCCN + O
viscosity [mPa·s], 101 kPa
Details	293.15 K	298.15 K	303.15 K	313.15 K	323.15 K
x1 = 0.0425	–	2.44	2.06	1.55	1.23
x1 = 0.0565	–	–	–	–	1.615
x1 = 0.0568	–	3.46	2.88	2.07	1.6
x1 = 0.1	11.17	–	7.2	4.78	3.41
x1 = 0.1999	48.86	–	24.8	14.08	8.54
x1 = 0.2999	61.11	–	30.19	16.63	10.2
x1 = 0.3997	44.08	–	23.49	13.62	8.35
x1 = 0.4997	29.78	–	16.66	10.31	6.79
x1 = 0.5997	20.36	–	12.11	7.77	5.28
x1 = 0.6996	14.64	–	9.24	6.17	4.22
x1 = 0.7992	10.95	–	–	4.9	3.55
x1 = 0.8073	–	–	–	–	3.445
x1 = 0.8954	8.515	–	–	–	–
x1 = 0.8989	8.48	–	5.52	4.11	3.03

Oc1cccc2ccccc12 + CCCO
viscosity [mPa·s], 101 kPa
Details	x1 = 0.04	x1 = 0.08	x1 = 0.12	x1 = 0.16	x1 = 0.2
293.15 K	2.564	2.904	3.349	3.844	4.423
303.15 K	1.999	2.245	2.528	2.863	3.26
313.15 K	1.592	1.696	1.867	2.114	2.396
323.15 K	1.293	1.403	1.567	1.748	1.954

CCCC[N+](CCCC)(CCCC)CCCC.[Br-] + NCCO
101 kPa, x1 = 0.143
Details	viscosity [mPa·s]
298.15 K	53.49
303.15 K	40.7
308.15 K	31.66
313.15 K	25.12
318.15 K	20.28
323.15 K	16.63

O=C(O)CC(O)C(=O)O (centres undefined) + C[N+](C)(C)CC(=O)[O-]
Details	viscosity [mPa·s]
318.15 K, 101 kPa, x2 = 0.5	42170

Oc1cccc(O)c1 + CCCO
viscosity [mPa·s], 101 kPa
Details	293.15 K	303.15 K	323.15 K
x1 = 0.07	3.605	–	1.675
x1 = 0.28	–	12.05	–

NCCNCCN + CCN(CC)CCO
viscosity [mPa·s], 101 kPa
Details	x1 = 0.1	x1 = 0.1999	x1 = 0.2999	x1 = 0.3997	x1 = 0.4997	x1 = 0.5997	x1 = 0.6996	x1 = 0.7992	x1 = 0.8989
293.15 K	6.36	7.21	8	8.32	8.45	8.11	7.8	7.34	7.02
303.15 K	4.38	4.95	5.25	5.5	5.64	5.52	5.31	5.08	4.89
313.15 K	3.14	3.46	3.72	3.92	4.02	3.94	3.8	3.62	3.52
323.15 K	2.28	2.54	2.72	2.9	3	2.95	2.88	2.77	2.69

CCCCCCCC[N+](C)(CCCCCCCC)CCCCCCCC.[Cl-] + COC(=O)OC
Details	viscosity [mPa·s]
298.15 K, 101 kPa, x1 = 0.65	534.7

C[C@H](CCC(=O)[O-])[C@H]1CC[C@H]2[C@@H]3[C@H](O)C[C@@H]4C[C@H](O)CC[C@]4(C)[C@H]3C[C@H](O)[C@]12C.[Na+] + O
viscosity [mPa·s], 101 kPa
Details	x1 = 4.223e-05	x1 = 8.385e-05	x1 = 0.0001682	x1 = 0.0003376	x1 = 0.0004225	x1 = 0.0005082	x1 = 0.0006801	x1 = 0.0008535
293.15 K	–	–	–	–	–	–	1.082	1.105
298.15 K	–	0.8984	–	0.9231	–	0.9405	0.9598	0.9782
303.15 K	0.801	0.8044	0.8115	0.8262	0.8337	–	0.8579	0.875
308.15 K	–	0.7264	0.7329	0.7454	0.7527	0.7593	0.774	0.7887
313.15 K	–	–	–	0.6763	0.6826	–	0.7016	0.7154

C1=Cc2cccc3cccc1c23 + ClC(Cl)Cl
viscosity [mPa·s], 101 kPa
Details	298.15 K	303.15 K	308.15 K	313.15 K
x1 = 0.1595	0.892	0.8295	0.7764	0.7199
x1 = 0.2105	0.9695	0.907	0.8473	0.7968

CCCCCCCCCCCCCC(=O)OCC + CCC1CCCCC1
viscosity [mPa·s], 100 kPa
Details	x2 = 0.0998	x2 = 0.2	x2 = 0.3001	x2 = 0.4002	x2 = 0.5	x2 = 0.6	x2 = 0.6999	x2 = 0.8	x2 = 0.9
293.15 K	4.251	3.768	3.305	2.865	2.44	2.053	1.709	1.387	1.105
298.15 K	3.763	3.351	2.962	2.582	2.221	1.88	1.572	1.286	1.034
303.15 K	3.361	3.011	2.672	2.34	2.022	1.726	1.45	1.199	0.972
308.15 K	3.01	2.709	2.411	2.12	1.845	1.579	1.335	1.11	0.904
313.15 K	2.694	2.432	2.18	1.925	1.685	1.454	1.234	1.031	0.839
318.15 K	2.461	2.227	2	1.775	1.558	1.353	1.152	0.964	0.791
323.15 K	2.242	2.032	1.829	1.628	1.436	1.251	1.071	0.9	0.736

Oc1cccc(O)c1O + C[N+](C)(C)CCO.[Cl-]
viscosity [mPa·s], 101.3 kPa
Details	293.15 K	298.15 K	303.15 K	308.15 K	313.15 K	318.15 K	323.15 K
x2 = 0.333	6400	4850	3200	2000	1250	800	600
x2 = 0.5	6100	3750	2500	1500	1000	750	500

CCCC[N+](CCCC)(CCCC)CCCC.[Br-] + ClC(Cl)(Cl)Cl
303.15 K, 101 kPa
Details	viscosity [mPa·s]
x1 = 0.0245	2.46
x1 = 0.026	2.59
x1 = 0.0348	3.22
x1 = 0.0608	7.11
x1 = 0.0946	14.33
x1 = 0.1162	24.57
x1 = 0.1446	36.49
x1 = 0.1666	56.17
x1 = 0.1764	63.7
x1 = 0.2004	101.7
x1 = 0.2171	141.8
x1 = 0.2631	307.1
x1 = 0.3449	1248

C=C1CCC2CC1C2(C)C (centres undefined) + Cc1ccccc1
viscosity [mPa·s], 101 kPa
Details	x2 = 0.2689	x2 = 0.3867	x2 = 0.4951	x2 = 0.5953	x2 = 0.6881	x2 = 0.7744	x2 = 0.8547	x2 = 0.9298
303.15 K	1.188	0.995	0.86	0.754	0.684	0.633	0.595	0.564
308.5 K	1.112	0.93	0.803	0.703	0.642	0.595	0.565	0.536
313.15 K	1.027	0.863	0.745	0.654	0.598	0.56	0.534	0.505

Oc1cccc(O)c1 + CCCCO
Details	viscosity [mPa·s]
293.15 K, 101 kPa, x1 = 0.28	19.75

CCCC[N+](CCCC)(CCCC)CCCC.[Br-] + OCC(O)CO
viscosity [mPa·s], x1 = 0.2
Details	296.97 K	298 K	302.02 K	307.2 K	312.13 K	317.31 K	322.23 K
101 kPa	892.4	–	671.4	484.4	331.4	238	195.5
101.33 kPa	–	333.9	–	–	–	–	–

CCCCC(=O)O + CCCCCCCO
viscosity [mPa·s], 100 kPa
Details	x1 = 0.0814	x1 = 0.1667	x1 = 0.2436	x1 = 0.3521	x1 = 0.4395	x1 = 0.5617	x1 = 0.6566	x1 = 0.7424	x1 = 0.8518	x1 = 0.9437
293.15 K	6.67	6.29	5.94	5.44	5.02	4.43	3.96	3.54	2.99	2.53
303.15 K	4.79	4.54	4.31	3.98	3.7	3.31	3	2.72	2.36	2.06
313.15 K	3.52	3.32	3.14	2.9	2.72	2.46	2.27	2.09	1.87	1.68
323.15 K	2.66	2.53	2.42	2.26	2.13	1.96	1.83	1.71	1.56	1.43

C[NH2+]CCO.O=C([O-])c1ccccc1O + O
100 kPa, x2 = 0.143
Details	viscosity [mPa·s]
298 K	357.8
303 K	249.1
313 K	128.2
323 K	72.71

NCCNCCN + CCO
viscosity [mPa·s], 100 kPa
Details	x2 = 0.1023	x2 = 0.2001	x2 = 0.3566	x2 = 0.492	x2 = 0.6001	x2 = 0.6952	x2 = 0.7703	x2 = 0.8378	x2 = 0.897	x2 = 0.9523
298.15 K	5.92	5.97	5.63	5.02	4.36	3.7	3.08	2.51	1.97	1.49
303.15 K	4.85	4.98	4.76	4.25	3.74	3.17	2.69	2.2	1.76	1.34
308.15 K	4.21	4.33	4.13	3.69	3.24	2.79	2.4	1.99	1.62	1.24
